The subject of one data set is Xenopus laevis. As to the kind of experiment: Anesthetic activity in Xenopus laevis tadpoles assessed as loss of righting reflexes. It is filed as functional, organism-based. To be noted: Tadpole.
Data set [1] has as its target GABA-A receptor; alpha-1/beta-2/gamma-2 (Homo sapiens) (UniProt P14867+P47870+P18507). To be noted: Oocyte, 80 uM.
In data set [2] the target is T1, Gamma-aminobutyric acid receptor subunit beta-3 (Homo sapiens, UniProt P28472).
T1 sequence (P28472 whole entry): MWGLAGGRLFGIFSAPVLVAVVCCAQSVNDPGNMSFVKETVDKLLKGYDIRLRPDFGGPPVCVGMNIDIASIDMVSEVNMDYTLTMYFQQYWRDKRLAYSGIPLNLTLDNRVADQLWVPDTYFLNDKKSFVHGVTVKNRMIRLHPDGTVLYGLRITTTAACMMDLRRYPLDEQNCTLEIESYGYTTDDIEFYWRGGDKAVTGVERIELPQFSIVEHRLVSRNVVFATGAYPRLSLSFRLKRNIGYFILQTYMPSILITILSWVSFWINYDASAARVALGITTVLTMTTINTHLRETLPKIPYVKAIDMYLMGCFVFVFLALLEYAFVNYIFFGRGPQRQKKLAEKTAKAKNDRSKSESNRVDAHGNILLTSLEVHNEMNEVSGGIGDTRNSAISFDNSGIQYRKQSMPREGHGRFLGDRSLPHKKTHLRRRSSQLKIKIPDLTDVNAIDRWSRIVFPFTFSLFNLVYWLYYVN
As to the kind of experiment: biochemical.

In data set [3] the target is T2, Gamma-aminobutyric acid receptor subunit alpha-1 (Homo sapiens) (UniProt P14867).
T2 sequence (whole entry): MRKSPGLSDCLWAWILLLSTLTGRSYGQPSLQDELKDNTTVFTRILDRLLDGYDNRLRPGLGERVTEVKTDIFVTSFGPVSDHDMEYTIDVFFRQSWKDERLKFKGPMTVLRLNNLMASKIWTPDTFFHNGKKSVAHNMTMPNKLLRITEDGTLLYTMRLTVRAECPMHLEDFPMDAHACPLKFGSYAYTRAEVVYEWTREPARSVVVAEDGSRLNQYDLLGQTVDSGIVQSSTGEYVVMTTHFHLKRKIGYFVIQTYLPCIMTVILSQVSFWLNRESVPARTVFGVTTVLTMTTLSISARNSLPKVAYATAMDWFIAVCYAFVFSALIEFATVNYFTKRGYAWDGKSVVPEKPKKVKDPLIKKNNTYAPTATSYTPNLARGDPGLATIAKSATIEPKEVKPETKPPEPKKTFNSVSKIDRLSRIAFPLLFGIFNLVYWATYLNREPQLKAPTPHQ
Conditions: HEK293S, 200 uM.

Data set [4] deals with T3, Gamma-aminobutyric acid receptor subunit beta-3 (Homo sapiens) (UniProt P28472).
T3 sequence (whole entry): T1 sequence (P28472 whole entry)
To be noted: HEK293S, 200 uM.

A short description of data set [5]: Stability in 0.01 M Tris/HCl buffer at pH 7.4 at 4 degC days by HPLC. It counts as physicochemical.
Data set [6] is described as follows: Aqueous solubility in 0.01 M Tris/HCl buffer at pH 7.4 by HPLC. It is filed as physicochemical.

Structures are written as SMILES. Converted amounts (≈) assume the structure as drawn.

As usually defined, the EC50 is the concentration at which the effect is half-maximal. For orientation: inhibition means how much of the control response was suppressed. Regarding `C=CC[C@]1(c2cccc(C3(C(F)(F)F)N=N3)c2)C(=O)NC(=O)N(C)C1=O`, in the data set on Xenopus laevis, the EC50 worked out at 38 µM. Besides, the inhibition in data set [1] stood at 40%.

One may read the IC50 as the concentration at which inhibition is half-maximal. The low end stands for greater potency, the high end for weaker potency. Turning to `CCCC(C)C1(CC)C(=O)NC(=O)NC1=O` (stereo not given) [PENTOBARBITAL], in the data set on Xenopus laevis, the EC50 was found to be 65 µM. Besides, in data set [2], inhibition was half-maximal at 88 µM (IC50).

Turning to `C=CC[C@@]1(c2cccc(C3(C(F)(F)F)N=N3)c2)C(=O)NC(=O)N(C)C1=O`, the EC50 with Xenopus laevis came to 3.7 µM. For the same compound, the inhibition in data set [3] and in data set [4] was more than 90% in each case.

One may read the solubility as the concentration that dissolves in the medium under given conditions. As for `C=CCC1(c2cccc(C3(C(F)(F)F)N=N3)c2)C(=O)NC(=O)N(C)C1=O` (racemic), the Stability in data set [5] amounted to 2.5 days. The compound further displayed a solubility in data set [6] (buffer) of 80 µM (≈ 29.3 µg/mL).

Turning to `CCC1(c2ccccc2)C(=O)NC(=O)N(C)C1=O` (stereo not given) [MEPHOBARBITAL], the solubility in data set [6] (0.01 M Tris/HCl buffer, read-out: solubility) was 600 µM (≈ 148 µg/mL).

(Values after ChEMBL document CHEMBL2163302, “Allyl m-trifluoromethyldiazirine mephobarbital: an unusually potent enantioselective and photoreactive barbiturate general anesthetic” (J Med Chem, 2012).)
